From US20250387360A1, “Methods and Compositions for Treatment of Addiction” (University of Connecticut, priority 2024, published 2025)

Test system: male C57BL/6J mice
Test: 4-day DID binge-like ethanol drinking with SCFA supplementation in drinking water
Type: in vivo, mouse
Conditions: for alcohol intake with SCFA supplement: 200 mM in drinking water 10 days, n=7 mice/group
Description: Male C57BL/6J mice, (RRID: IMSR_JAX: 000664), aged 6-8 weeks, were obtained from Jackson Laboratories (ME, U.S.A) for the study. The mice were housed individually under a reversed 12-hours light/dark cycle, with lights off from […] to 7:00 am. A minimum acclimation period of 2 weeks was provided for all animals before they were randomly assigned to their respective groups. Mice had free access to food (Irradiated chow, Teklad global 18% protein rodent diet, 2918, Inotiv, WI, U.S.A) and deionized water to acclimate to the testing environment. Body weight and daily food and fluid intake were monitored and noted for all animal experiments.
A standard 4-day drinking in the dark (DID) model was used to evaluate binge-like ethanol drinking patterns in mice. A 20% v/v ethanol solution was prepared by diluting 190-proof ethyl alcohol (Sigma, MO, U.S.A) with deionized water. During days 1-3, the water bottles were temporarily removed during the dark cycle of the mice, and the mice were provided with a tube containing the 20% v/v ethanol solution for a duration of two hours. On day four, the assessment of binge-like ethanol consumption took place, where the mice were given access to the 20% v/v ethanol solution for a period of four hours. The volume of fluid in the tube (read to the closest 100 μL) was measured immediately upon placement, and at two hours and four hours into the test. Following the completion of the four hours test, approximately 100 μL of blood was collected through cardiac puncture after CO2 euthanasia. Blood samples were subjected to centrifugation at 10,000 rpm for 10 minutes. The determination of blood ethanol concentrations (BEC) was performed using an Analox AMI Analyzer (Analox Instruments, MA, U.S.A). The quantity of ethanol consumed was then calculated as grams per kilogram of the mouse's body weight.
All SCFA were used in sodium salt form. Briefly, sodium acetate (Sigma, MO, U.S.A), sodium butyrate (Sigma, MO, U.S.A), sodium valerate (Ambeed, IL, U.S.A), and sodium chloride (NaCl; Sigma, Mo, U.S.A) were prepared at 200 mM concentration freshly in drinking water every two days. These concentrations were chosen based on earlier studies conducted in mice [Qi Y., et al., Sodium acetate regulates milk fat synthesis through the activation of GPR41/GPR43 signaling pathway. Frontiers in nutrition 2023, 10:1098715; Daien C I, et al., Gut-derived acetate promotes B10 cells with anti-inflammatory effects. JCI insight 2021, 6 (7)]. All SCFA and NaCl solutions were pH verified to control for acidity effects on daily consumption. SCFAs were given to mice via oral drinking for 10 consecutive days before any experiment, and this regimen was maintained throughout the entire experiment.
General statistical analysis (non-microbiome and non-RNAseq analysis) were conducted using GraphPad Prism 8 (GraphPad, CA, USA, RRID:SCR_002798). For the calculation of ethanol consumption during the DID procedure, it was expressed as grams of ethanol per kilogram of body weight (g/kg body weight), where 20% ethanol intake was determined as follows: multiplying the drinking volume by the ethanol percentage within that volume and the density of ethanol, and then dividing this by the mouse's body weight in kilograms. Normality of data distributions was tested by Shapiro-Wilk test and by Q-Q plots. Levene's test was used to test equality of variances across groups. Unpaired Student's t-tests were used to compare behavioral testing, GABA levels, and histone acetylation measurements between the sodium valerate and NaCl groups. To evaluate the impact of antibiotic cocktail administration on ethanol consumption and BEC between the groups receiving Abx and PBS at baseline and after treatment, a mixed ANOVA test was employed, given repeated measures from the same mouse from the two time points. Similarly, mixed ANOVA tests were applied to compare various SCFA levels before and after Abx administration.

[1] = supplementation in drinking water, DID

Structure (SMILES)	alcohol intake with SCFA supplement	BEC (in words) [1]	ethanol consumption (in words) [1]
CC(=O)[O-].[Na+] [sodium acetate, reference compound]	no statistical changes	–	–
CCCC(=O)[O-].[Na+] [sodium butyrate, reference compound]	no statistical changes	–	–
CCCCC(=O)O [valeric acid]	–	significant reduction	significant reduction
